The assay relates to glycogenolysis in primary cultures of rat hepatocytes. Nature of the assay: Inhibitory potency on glycogenolysis in primary cultures of rat hepatocytes (glucagon-induced glucose production rate). Format: cell-based. The note with it: Hepatocyte. As to the method:
Analysis of Test Substances for their Inhibitory Potency on Glycogenolysis in Primary Cultures of Rat Hepatocytes
Hepatocytes were isolated from the livers of fed rats (Sprague-Dawley or Wistar, bodyweight 220-240 g) by means of a standard 2-stage perfusion first with calcium-free buffer solution followed by perfusion with collagenase-containing solution to break up the tissue assembly (Seglen et al, 1979). The cells were incubated in an incubator with 90% humidity at 37° C. and an atmosphere with 5% CO2 in air. The cultivation normally took place with Williams' medium E supplemented with 20 mM glucose, 0.1 mM fructose, 1 μM dexamethasone and 100 nM insulin. Glycogenolysis was induced by changing the culture medium to prewarmed carbogen-gassed Krebs-Henseleit bicarbonate Hepes (20 mM) buffer, pH 7.4, supplemented with 100 nM glucagon (time 0 min). The test substances were normally added at time 0 min as 100× stock solution in DMSO. The final DMSO concentration was not higher than 1% (v/v). The amount of glucose in the culture supernatant was determined after addition of glucagon in the presence and absence of test substance by removing small aliquots of the cell culture supernatant at times 0, 30, 60 and 90 min. The glucose concentration (mM) was determined by enzymatic methods in a biochemical analysis laboratory of Aventis Pharma Deutschland. The glucose production rate was found by linear regression of the glucose concentration at times 30, 60 and 90 min using the following formula:
Glucose production rate (mM/h)=mM glucose (90 min)−mM glucose (30 min).
The percent inhibition was calculated using the following formula: […]
IC50 values (IC50: the concentration (μM) of test substance which brings about a reduction of 50% in the glucose production rate) was estimated by standard curve fitting methods using the percent inhibitions obtained at relevant concentrations of test substance.

The mark [1] stands for this setting: glycogenolysis induced with 100 nM glucagon, 50% reduction in glucose production rate, read-out: IC50 on hep.
[2] abbreviates: comparison examples from WO 01/94300, glucagon-induced glycogenolysis, read-out: IC50 nm hep.

As usually defined, the IC50 is the concentration at which inhibition is half-maximal.

Where two headings read alike, the source gives them in different places.

`O=C(O)COc1ccccc1NC(=O)NC(=O)c1ccc(F)cc1Cl` [Example 1, 2-[3-(2-Chloro-4-fluorobenzoyl)ureido]phenoxyacetic acid]: the IC50 under setting [1] came out at 1160 nM.
On the same count and under the same terms, the value for `O=C(O)COc1cc(C(=O)O)ccc1NC(=O)NC(=O)c1ccc(F)cc1Cl` [Example 2, 3-Carboxymethoxy-4-[3-(2-chloro-4-fluorobenzoyl)ureido]benzoic acid] was 1460 nM; that for `COC(=O)CCCOc1cc(C(=O)O)ccc1NC(=O)NC(=O)c1cc(F)c(F)cc1Cl` [Example 10, 4-[3-(2-Chloro-4,5-difluorobenzoyl)ureido]-3-(3-methoxycarbonylpropoxy)benzoic acid] was 106 nM.
Turning to `CC(=O)CCCCCOc1c(Cl)cc(NC(=O)NC(=O)c2ccc(F)cc2Cl)cc1Cl` [Example No. 105 from WO 01/94300, reference compound], under setting [2], the IC50 was determined as 17500 nM.
For the compound `CC(=O)CCCCCOc1ccc(NC(=O)NC(=O)c2ccc(Cl)cc2Cl)c(F)c1` [Example No. 116 from WO 01/94300, reference compound], under setting [2], the IC50 was 13500 nM.
